According to patent US11858956B2, “6-aza-nucleoside prodrugs as antiviral agents for treating virus infections” (Southern Research Institute, priority 2020, dated 2024):

Key:
Format in all cases: cell-based
[1] = test system: ZIKA; assay: Antiviral activity against ZIKA in HEK 293 cells; settings: Zika virus; for EC90: HEK293, read-out: ZIKA (HEK 293 cells) EC90; for log reduction at 10 µM: HEK293, read-out: ZIKA (HEK 293 cells) VTR (virus titer reduction)
[2] = test system: CHIKV; assay: Antiviral activity against CHIKV in NHDF cells; settings: Chikungunya virus; for EC90: read-out: CHIKV (NHDF cells) EC90; for log reduction at 10 µM: read-out: CHIKV (NHDF cells) VTR (virus titer reduction)
[3] = Cytotoxicity (CC50) in HEK293 cells; settings: human, WNV
Method: (§1) As used herein, “CC50” is intended to refer to the concentration of a substance (e.g., a compound or a drug) that is required for 50% reduction of cell viability. In one aspect, an CC50 can refer to the concentration of a substance that is required for 50% reduction (i.e., cytotoxicity) in vivo, as further defined elsewhere herein.
The antiviral activity against Alpharviruses evaluated in HEK293 cells (4 hours pre-incubation with compound before infected with virus) is shown in Table 2 below. VTR=Virus titer reduction in log at 10 μM concentration. NT: not tested, ND: not determined

[4] = Cytotoxicity (CC50) in MDCK cells; settings: dog, H1N1
Method: as §1
(§2) The antiviral activity against Influenza viruses (H1N1 and H3N2 strains) evaluated in MDCK cells (4-6 hours pre-incubation with compound) shown in Table 5 below. VTR=Virus titer reduction in log at 20 μM concentration. NT: not tested, ND: not determined.

[5] = test system: WNV; assay: Antiviral activity against WNV in HEK293 cells; settings: West Nile virus; for EC90: HEK293, read-out: WNV (HEK293 cells) EC90; for log reduction at 10 µM: HEK293, read-out: WNV (HEK293 cells) VTR (virus titer reduction)
[6] = test system: H3N2 strain; assay: Antiviral activity against Influenza H3N2 strain in MDCK cells; settings: Influenza A virus; for EC90: 4-6 hours pre-incubation with compound; for log reduction at 20 µM: at 20 μM concentration, 4-6 hours pre-incubation, read-out: H3N2 strain (MDCK cells) VTR (virus titer reduction)
Method: as §2

[7] = test system: H1N1 strain; assay: Antiviral activity against Influenza H1N1 strain in MDCK cells; settings: Influenza A virus; for EC90: 4-6 hours pre-incubation with compound; for log reduction at 20 µM: at 20 μM concentration, 4-6 hours pre-incubation, read-out: H1N1 strain (MDCK cells) VTR (virus titer reduction)
Method: as §2

[8] = test system: DENV; assay: Antiviral activity against DENV in HEK293 cells; settings: Dengue virus; for EC90: HEK293, read-out: DENV (HEK293 cells) EC90; for log reduction at 10 µM: HEK293, read-out: DENV (HEK293 cells) VTR (virus titer reduction)
[9] = Cytotoxicity (CC50) in NHDF cells; settings: human, CHIKV
Method: as §1
VTR=Virus titer reduction in log at 10 μM concentration. NT: not tested, ND: not determined.

[10] = test system: VEEV; assay: microbe, parasite or virus in culture; settings: Venezuelan equine encephalitis virus, NHDF; for EC90: read-out: VEEV (NHDF cells) EC90; for log reduction at 10 µM: read-out: VEEV (NHDF cells) VTR (virus titer reduction)

| SMILES | EC90 [1] [nM] | log reduction at 10 µM [1] | EC90 [2] [nM] | log reduction at 10 µM [2] | CC50 [3] [µM] | CC50 [4] [µM] | EC90 [5] [nM] | log reduction at 10 µM [5] | EC90 [6] [µM] | log reduction at 20 µM [6] | EC90 [7] [nM] | log reduction at 20 µM [7] | EC90 [8] [nM] | log reduction at 10 µM [8] | CC50 [9] [µM] | EC90 [10] [µM] | log reduction at 10 µM [10] |
| --- | --- | --- | --- | --- | --- | --- | --- | --- | --- | --- | --- | --- | --- | --- | --- | --- | --- |
| CCCCCCCCCCCCCCCCCC(=O)OC[C@H]1O[C@@H](n2ncc(=O)[nH]c2=O)[C@H](O)[C@@H]1O [Compound 15, ((2r,3s,4r,5r)-5-(3,5-dioxo-4,5-dihydro-1,2,4-triazin-2(3H)-yl)-3,4-dihydroxytetrahydrofuran-2-yl)methyl stearate] | 400 | 3 | 310 | 2.6 | 0.97 | > 20 | 330 | 4.5 | 3.29 | 3 | 750 | 3.3 | 160 | 3.6 | 7.96 | > 10 | 0 |
| CCCC(CCC)C(=O)Nc1cnn([C@@H]2O[C@H](CO)[C@@H](O)[C@H]2O)c(=O)n1 [Compound 18, N-(2-((2r,3r,4s,5r)-3,4-dihydroxy-5-(hydroxymethyl)-tetrahydrofuran-2-yl)-3-oxo-2,3-dihydro-1,2,4-triazin-5-yl)-2-propylpentanamide] | 100 | 2.7 | 3200 | 1.42 | 30.8 | 19.6 | 400 | 2.8 | 2.78 | 3.4 | 660 | 3.3 | 200 | 4 | > 40 | > 10 | 0.13 |
